From patent publication US20010049373A1, “Materials and methods for killing nematodes and nematode eggs” (priority 2000, published 2001)

Assays:
Caenorhabditis elegans [1] = assay: HTS runs (initial and follow-up): mOD, % Run and visual score (Table 3); format: in vivo; parameters: key to Initial HTS Run Visual Score / Follow-up HTS Run Visual Score: Dead: only stiff L1s (no movement); Dead (L4): worms are dead, but at a later larval stage; majority of worms are L1 (based on size); majority of worms are L2 (based on size); majority of worms are L3 (based on size); majority of worms are L4 (based on size); AD: majority of worms are adult; #AD: 5 adult worms or less; B!: sterile (0-25 progeny); B: low broodsize (25-100 progeny); ˜B: moderate broodsize (100-250 progeny); <: reduced broodsize (250-500 progeny); OK: no effect (˜1000+ progeny)
Description: (§1) The nematicidal activity of anthelmintic Compositions 48-118 were determined in accordance with the procedure outlined in Example 2.

Caenorhabditis elegans [2] = assay: C. elegans L1 larvae dose-response, 5 day visual viability score (Examples 2 and 7); format: in vivo; parameters: key: Dead: only stiff L1s (no movement); Dead (L4): worms are dead, but at a later larval stage; majority of worms are L1 (based on size); majority of worms are L2 (based on size); majority of worms are L3 (based on size); majority of worms are L4 (based on size); AD: majority of worms are adult; #AD: 5 adult worms or less; B!: sterile (0-25 progeny); B: low broodsize (25-100 progeny); ˜B: moderate broodsize (100-250 progeny); <: reduced broodsize (250-500 progeny); OK: no effect (˜1000+ progeny); details: day 5, Table 3; for 5 Day Visual Score V6: 0.3 μM (procedure of Example 2); for 5 Day Visual Score V5: 0.9 μM (procedure of Example 2); for 5 Day Visual Score V4: 2.6 μM (procedure of Example 2); for 5 Day Visual Score V3: 7.8 μM (procedure of Example 2); for 5 Day Visual Score V2: 23.3 μM (procedure of Example 2); for 5 Day Visual Score V1: 70 μM (procedure of Example 2)
Description: Caenorhabditis elegans adults were grown on Nematode Growth Medium (NGM) until they produced eggs, then the adults were removed.
The eggs were allowed to hatch, and the L1 larvae collected. See The Neniatode Caenorhabditis elegans (1988) Cold Spring Harbor Laboratory Press. Using a Matrix Programmable Pipette, the L1s were distributed into 96-well tissue culture plates, 20 L1 in 50 μl NGM per well. Antibiotic/Antimyotic was added to each well, and 1% by weight E. coli strain HB101. The subject anthelmintic compounds were stored at 5 mM in 100% DMSO. 0.7 μl of compounds 1-31 were added to the left-most column of wells to yield a final concentration of 70 μM in 1.4% DMSO, with 1.4% DMSO only as the control. The compounds were then subjected to 5 more 3-fold dilutions from left to right to yield 6 column concentrations of 70 μM, 23.3 μM, 7.8 μM, 2.6 μM, 0.9 μM, and 0.3 μM. Plates were stored in air-tight Rubbermaid plastic boxes at 20° C. The nematodes had cleared all control wells by day 4, and nematode viability was scored by visual examination under a 100× dissecting microscope on day 5. A visual viability scoring system was used as follows:
If several classes of worms exist in a well, then all classes are scored. If adults are present, then the brood score is also recorded. Thus, “L1/L2” would mean a mixture of L1's and L2's are present in the well. “L4/#AD/B” would mean that a mixture of L4's and adults are resent in the well. The “#AD” would mean that there are 6 or less adults, and the “B” would mean that there were 100 progeny or less.
Column VI has a compound concentration of 70 μM with sequential 3-fold dilutions reported in columns V2, V3, V4, V5, and V6, respectively, such that the V6 concentration was 0.3 μM.
as §1

## Clc1cccc(Oc2cc(NCc3ccccc3Cl)ncn2)c1 [AKC 376]
Caenorhabditis elegans [1]
  Follow-up HTS Run % Run: 115%
  Follow-up HTS Run Visual Score: L2/L3/1AD
  Follow-up HTS Run mOD: 155 mOD
  Initial HTS Run % Run: 131%
  Initial HTS Run Visual Score: 2AD/B
  Initial HTS Run mOD: 256 mOD
Caenorhabditis elegans [2]
  5 Day Visual Score V6: OK (no effect (˜1000+ progeny))
  5 Day Visual Score V5: OK (no effect (˜1000+ progeny))
  5 Day Visual Score V4: OK (no effect (˜1000+ progeny))
  5 Day Visual Score V3: OK (no effect (˜1000+ progeny))
  5 Day Visual Score V2: OK (no effect (˜1000+ progeny))
  5 Day Visual Score V1: L1

## NS(=O)(=O)c1cccc(NC(=O)CCN2CCC(c3cccc4[nH]ccc34)CC2)c1 [AKC 377]
Caenorhabditis elegans [1]
  Follow-up HTS Run % Run: 109%
  Follow-up HTS Run Visual Score: L4/AD/B!-No P
  Follow-up HTS Run mOD: 147 mOD
  Initial HTS Run % Run: 113%
  Initial HTS Run Visual Score: 3AD/B
  Initial HTS Run mOD: 220 mOD
Caenorhabditis elegans [2]
  5 Day Visual Score V6: OK (no effect (˜1000+ progeny))
  5 Day Visual Score V5: OK (no effect (˜1000+ progeny))
  5 Day Visual Score V4: OK (no effect (˜1000+ progeny))
  5 Day Visual Score V3: OK (no effect (˜1000+ progeny))
  5 Day Visual Score V1: L1

## FC(F)(F)c1cccc(CNc2cc(Oc3cccc(Cl)c3)ncn2)c1 [AKC 379]
Caenorhabditis elegans [1]
  Follow-up HTS Run % Run: 107%
  Follow-up HTS Run Visual Score: L4/AD/B!
  Follow-up HTS Run mOD: 144 mOD
  Initial HTS Run % Run: 142%
  Initial HTS Run Visual Score: Dead/1AD
  Initial HTS Run mOD: 277 mOD
Caenorhabditis elegans [2]
  5 Day Visual Score V6: OK (no effect (˜1000+ progeny))
  5 Day Visual Score V5: OK (no effect (˜1000+ progeny))
  5 Day Visual Score V4: OK (no effect (˜1000+ progeny))
  5 Day Visual Score V3: OK (no effect (˜1000+ progeny))
  5 Day Visual Score V1: Dead

## Fc1ccc(Oc2cc(NCc3cccc(C(F)(F)F)c3)ncn2)cc1 [AKC 380]
Caenorhabditis elegans [1]
  Follow-up HTS Run % Run: 102%
  Follow-up HTS Run Visual Score: L4/AD/B!
  Follow-up HTS Run mOD: 138 mOD
  Initial HTS Run % Run: 129%
  Initial HTS Run Visual Score: Dead
  Initial HTS Run mOD: 251 mOD
Caenorhabditis elegans [2]
  5 Day Visual Score V6: OK (no effect (˜1000+ progeny))
  5 Day Visual Score V5: OK (no effect (˜1000+ progeny))
  5 Day Visual Score V4: OK (no effect (˜1000+ progeny))
  5 Day Visual Score V3: OK (no effect (˜1000+ progeny))
  5 Day Visual Score V1: L1

## Fc1ccccc1Oc1cc(NCc2cccc(C(F)(F)F)c2)ncn1 [AKC 381]
Caenorhabditis elegans [1]
  Follow-up HTS Run % Run: 109%
  Follow-up HTS Run Visual Score: L4/AD/B!
  Follow-up HTS Run mOD: 147 mOD
  Initial HTS Run % Run: 138%
  Initial HTS Run Visual Score: Dead/1AD/B!
  Initial HTS Run mOD: 270 mOD
Caenorhabditis elegans [2]
  5 Day Visual Score V6: OK (no effect (˜1000+ progeny))
  5 Day Visual Score V5: OK (no effect (˜1000+ progeny))
  5 Day Visual Score V4: OK (no effect (˜1000+ progeny))
  5 Day Visual Score V3: < (reduced broodsize (250-500 progeny))
  5 Day Visual Score V2: ˜B (moderate broodsize (100-250 progeny))
  5 Day Visual Score V1: L1

## FC(F)(F)c1cccc(CNc2cc(Oc3ccc(-c4ccccc4)cc3)ncn2)c1 [AKC 382]
Caenorhabditis elegans [1]
  Follow-up HTS Run % Run: 118%
  Follow-up HTS Run mOD: 159 mOD
  Initial HTS Run % Run: 141%
  Initial HTS Run Visual Score: Dead
  Initial HTS Run mOD: 275 mOD
Caenorhabditis elegans [2]
  5 Day Visual Score V6: OK (no effect (˜1000+ progeny))
  5 Day Visual Score V5: OK (no effect (˜1000+ progeny))
  5 Day Visual Score V4: OK (no effect (˜1000+ progeny))
  5 Day Visual Score V3: OK (no effect (˜1000+ progeny))
  5 Day Visual Score V1: Dead

## FC(F)(F)c1cccc(CNc2cc(Oc3ccccc3Cl)ncn2)c1 [AKC 383]
Caenorhabditis elegans [1]
  Follow-up HTS Run % Run: 110%
  Follow-up HTS Run Visual Score: L4/AD/B!
  Follow-up HTS Run mOD: 149 mOD
  Initial HTS Run % Run: 132%
  Initial HTS Run Visual Score: 5AD/B
  Initial HTS Run mOD: 257 mOD
Caenorhabditis elegans [2]
  5 Day Visual Score V6: OK (no effect (˜1000+ progeny))
  5 Day Visual Score V5: OK (no effect (˜1000+ progeny))
  5 Day Visual Score V4: OK (no effect (˜1000+ progeny))
  5 Day Visual Score V3: OK (no effect (˜1000+ progeny))
  5 Day Visual Score V2: ˜B (moderate broodsize (100-250 progeny))
  5 Day Visual Score V1: L1

## CC(C)(C)OC(=O)NCc1ccc(-c2cccc(C(=O)Nc3ccc(S(N)(=O)=O)cc3)c2)cc1 [AKC 390]
Caenorhabditis elegans [1]
  Follow-up HTS Run % Run: 110%
  Follow-up HTS Run Visual Score: L4
  Follow-up HTS Run mOD: 148 mOD
  Initial HTS Run % Run: 133%
  Initial HTS Run Visual Score: B! (sterile (0-25 progeny))
  Initial HTS Run mOD: 260 mOD
Caenorhabditis elegans [2]
  5 Day Visual Score V6: OK (no effect (˜1000+ progeny))
  5 Day Visual Score V5: OK (no effect (˜1000+ progeny))
  5 Day Visual Score V4: OK (no effect (˜1000+ progeny))
  5 Day Visual Score V3: OK (no effect (˜1000+ progeny))
  5 Day Visual Score V1: L1

## C#Cc1cccc(N(CC(=O)Nc2ccc(S(N)(=O)=O)cc2)Cc2cccs2)c1 [AKC 394]
Caenorhabditis elegans [1]
  Follow-up HTS Run % Run: 111%
  Follow-up HTS Run Visual Score: Dead
  Follow-up HTS Run mOD: 150 mOD
  Initial HTS Run % Run: 135%
  Initial HTS Run Visual Score: Dead
  Initial HTS Run mOD: 264 mOD
Caenorhabditis elegans [2]
  5 Day Visual Score V6: < (reduced broodsize (250-500 progeny))
  5 Day Visual Score V5: OK (no effect (˜1000+ progeny))
  5 Day Visual Score V4: OK (no effect (˜1000+ progeny))
  5 Day Visual Score V2: Dead
  5 Day Visual Score V1: Dead

## CCCCCCCCCCCCNc1cc(Oc2ccccc2OC)ncn1 [AKC 398]
Caenorhabditis elegans [1]
  Follow-up HTS Run % Run: 93%
  Follow-up HTS Run Visual Score: Dead
  Follow-up HTS Run mOD: 126 mOD
  Initial HTS Run % Run: 118%
  Initial HTS Run Visual Score: Dead
  Initial HTS Run mOD: 231 mOD
Caenorhabditis elegans [2]
  5 Day Visual Score V6: OK (no effect (˜1000+ progeny))
  5 Day Visual Score V5: < (reduced broodsize (250-500 progeny))
  5 Day Visual Score V4: OK (no effect (˜1000+ progeny))
  5 Day Visual Score V3: #AD/˜B
  5 Day Visual Score V2: Dead
  5 Day Visual Score V1: Dead

## CCCCCCCCCCCCNc1cc(Oc2ccccc2Cl)ncn1 [AKC 404]
Caenorhabditis elegans [1]
  Follow-up HTS Run % Run: 124%
  Follow-up HTS Run Visual Score: Dead
  Follow-up HTS Run mOD: 168 mOD
  Initial HTS Run % Run: 155%
  Initial HTS Run Visual Score: Dead
  Initial HTS Run mOD: 302 mOD
Caenorhabditis elegans [2]
  5 Day Visual Score V6: OK (no effect (˜1000+ progeny))
  5 Day Visual Score V5: OK (no effect (˜1000+ progeny))
  5 Day Visual Score V4: OK (no effect (˜1000+ progeny))
  5 Day Visual Score V3: OK (no effect (˜1000+ progeny))
  5 Day Visual Score V2: Dead
  5 Day Visual Score V1: Dead

## CCC(NC(=O)Nc1ccc(NC(=O)C2CCCO2)cc1)c1cccc(S(N)(=O)=O)c1 (centres unmarked) [AKC 405]
Caenorhabditis elegans [1]
  Follow-up HTS Run % Run: 120%
  Follow-up HTS Run Visual Score: 1AD/B!
  Follow-up HTS Run mOD: 162 mOD
  Initial HTS Run % Run: 141%
  Initial HTS Run Visual Score: 4AD/B
  Initial HTS Run mOD: 274 mOD
Caenorhabditis elegans [2]
  5 Day Visual Score V6: OK (no effect (˜1000+ progeny))
  5 Day Visual Score V5: OK (no effect (˜1000+ progeny))
  5 Day Visual Score V4: OK (no effect (˜1000+ progeny))
  5 Day Visual Score V3: #AD/˜B
  5 Day Visual Score V2: L1
  5 Day Visual Score V1: L1
